Reference: ChEMBL document CHEMBL1150841, “Mirabilin G: a new alkaloid from a southern Australian marine sponge, Clathria species” (J Nat Prod, 2001)
Activity calls are given as the source filed them.

Columns and labels:
Format in all cases: functional, organism-based
Saccharomyces cerevisiae = experiment: Antimicrobial activity against Saccharomyces cerevisiae
Escherichia coli = experiment: Antimicrobial activity against Escherichia coli
Serratia marcescens = experiment: Antimicrobial activity against Serratia marcescens

Measured: inhibition

CCCC/C=C/C1=C2NC(=N)N[C@H]3CC[C@@H](C[C@@H]1C)[C@@H]23
active: Saccharomyces cerevisiae | Escherichia coli | Serratia marcescens
